According to patent publication US8822517B2, “Arylosulfonamides for the treatment of CNS diseases” (Adamed SP. Z O.O., priority 2010, dated 2014):

Tests used:
[1] = biological target: T1, serotonine transporter (SERT) receptor (Homo sapiens, UniProt P31645); assay: Binding assay SERT (h), [3H]imipramine, CHO cells; conditions: read-out: SERT [%]
T1 construct: expressed in transfected cells; host or cells: CHO cells
Summary of the method: (§1)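 Scintillation counting detects receptor-bound radioligand. Compound tested at 1×10^−6 M.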

[2] = biological target: serotoninergic 5-HT7 receptor (Homo sapiens, UniProt P34969); assay: Cellular functional assay, serotoninergic 5-HT7 receptor (agonism/antagonism); format: cell-based; conditions: for activation at 1 µM: agonist effect, percent of control specific agonist response, compounds tested at 1×10^−6M, read-out: 5-HT7-ag [%]; for inhibition at 1 µM: read-out: 5-HT7-antag. [%]
Protocol: (§2) The compounds were tested at the concentration of 1×10^−6M.
(§3) In the Tables ag refers to agonism, and antag to antagonism).

dopaminergic D2 receptor [3] = biological target: T2, dopaminergic D2 receptor (Homo sapiens, UniProt P14416); assay: Binding assay D2S (h), [3H]methyl-spiperone, HEK-293 cells; parameters: expressed in transfected cells; host or cells: HEK-293 cells; conditions: read-out: D2 [%]
Summary of the method: as §1
Target sequence in this assay (P14416 1-414 isoform P14416-2): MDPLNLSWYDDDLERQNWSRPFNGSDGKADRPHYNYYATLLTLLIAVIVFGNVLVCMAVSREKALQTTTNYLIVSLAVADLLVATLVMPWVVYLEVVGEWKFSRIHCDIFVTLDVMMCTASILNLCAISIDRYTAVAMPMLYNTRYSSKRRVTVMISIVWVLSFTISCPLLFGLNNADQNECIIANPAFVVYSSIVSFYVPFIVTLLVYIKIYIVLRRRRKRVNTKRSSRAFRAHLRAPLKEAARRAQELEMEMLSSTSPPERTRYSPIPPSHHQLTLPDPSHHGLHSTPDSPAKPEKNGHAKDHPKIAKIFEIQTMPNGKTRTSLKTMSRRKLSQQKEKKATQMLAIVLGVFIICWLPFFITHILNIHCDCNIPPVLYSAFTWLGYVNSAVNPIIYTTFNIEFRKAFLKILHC

[4] = biological target: serotoninergic 5-HT2A receptor (Homo sapiens, UniProt P28223); assay: Binding assay 5-HT2A (h), [3H]ketanserin, HEK-293 cells; parameters: expressed in transfected cells; host or cells: HEK-293 cells; conditions: read-out: 5-HT2A
Summary of the method: as §1

[5] = biological target: histaminergic H1 receptor (Homo sapiens, UniProt P35367); assay: Cellular functional assay, histaminergic H1 receptor (agonism/antagonism); format: cell-based; conditions: for activation at 1 µM: agonist effect, percent of control specific agonist response, compounds tested at 1×10^−6M, read-out: H1 -ag [%]; for inhibition at 1 µM: read-out: H1 -antag. [%]
Protocol: as §2, §3

[6] = biological target: T3, serotoninergic 5-HT1A receptor (Homo sapiens, UniProt P08908); assay: Binding assay 5-HT1A (h), [3H]8-OH-DPAT, HEK-293 cells; parameters: expressed in transfected cells; host or cells: HEK-293 cells; conditions: read-out: 5-HT1A
T3 sequence (P08908 1-422): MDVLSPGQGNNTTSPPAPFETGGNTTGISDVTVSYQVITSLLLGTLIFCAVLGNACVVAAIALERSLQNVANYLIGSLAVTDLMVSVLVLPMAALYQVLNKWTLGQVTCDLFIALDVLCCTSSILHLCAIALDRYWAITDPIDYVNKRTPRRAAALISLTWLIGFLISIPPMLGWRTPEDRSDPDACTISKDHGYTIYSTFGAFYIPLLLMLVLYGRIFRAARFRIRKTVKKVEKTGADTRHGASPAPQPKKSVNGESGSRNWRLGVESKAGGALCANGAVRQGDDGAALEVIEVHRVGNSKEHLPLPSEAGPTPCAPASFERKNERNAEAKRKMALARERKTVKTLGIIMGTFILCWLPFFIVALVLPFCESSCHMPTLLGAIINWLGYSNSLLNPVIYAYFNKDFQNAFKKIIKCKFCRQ
Summary of the method: as §1

sigma σ receptor = assay: Binding assay σ (non-selective), [3H]DTG, rat cerebral cortex; conditions: percent inhibition of control specific binding; compounds tested at 1×10^−6 M
Summary of the method: as §1

adrenergic α1 receptor = assay: Binding assay α1 (non-selective), [3H]prazosin, rat cerebral cortex; conditions: percent inhibition of control specific binding; compounds tested at 1×10^−6 M
Summary of the method: as §1

dopaminergic D2 receptor [7] = biological target: T2, dopaminergic D2 receptor; assay: Cellular functional assay, dopaminergic D2 receptor (agonism/antagonism); format: cell-based; conditions: HEK293; for activation at 1 µM: agonist effect, percent of control specific agonist response (3 μM dopamine for control), 1×10^−6 M, D2S (h), HEK-293 cells, read-out: D2-ag [%]; for inhibition at 1 µM: read-out: D2-antag. [%]
Protocol: as §2, §3
Target sequence in this assay (P14416 whole entry): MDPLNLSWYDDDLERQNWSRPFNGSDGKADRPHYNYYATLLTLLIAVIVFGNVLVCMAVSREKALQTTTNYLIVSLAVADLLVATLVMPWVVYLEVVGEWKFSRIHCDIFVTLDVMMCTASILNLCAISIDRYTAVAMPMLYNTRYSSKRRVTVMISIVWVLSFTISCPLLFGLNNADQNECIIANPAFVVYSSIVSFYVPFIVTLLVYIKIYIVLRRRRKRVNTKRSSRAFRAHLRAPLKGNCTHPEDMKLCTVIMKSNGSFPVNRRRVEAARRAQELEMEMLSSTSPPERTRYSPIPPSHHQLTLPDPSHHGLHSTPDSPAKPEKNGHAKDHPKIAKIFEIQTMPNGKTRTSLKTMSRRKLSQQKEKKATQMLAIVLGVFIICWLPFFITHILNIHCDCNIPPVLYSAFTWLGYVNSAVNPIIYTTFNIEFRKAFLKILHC

adrenergic α1A receptor = biological target: T4, adrenergic α1A receptor (Homo sapiens, UniProt P35348); assay: Cellular functional assay, adrenergic α1A receptor (agonism/antagonism); format: cell-based; conditions: for activation at 1 µM: agonist effect, percent of control specific agonist response, compounds tested at 1×10^−6M, read-out: α1A -ag [%]; for inhibition at 1 µM: read-out: α1A -antag. [%]
T4 sequence (P35348 1-466): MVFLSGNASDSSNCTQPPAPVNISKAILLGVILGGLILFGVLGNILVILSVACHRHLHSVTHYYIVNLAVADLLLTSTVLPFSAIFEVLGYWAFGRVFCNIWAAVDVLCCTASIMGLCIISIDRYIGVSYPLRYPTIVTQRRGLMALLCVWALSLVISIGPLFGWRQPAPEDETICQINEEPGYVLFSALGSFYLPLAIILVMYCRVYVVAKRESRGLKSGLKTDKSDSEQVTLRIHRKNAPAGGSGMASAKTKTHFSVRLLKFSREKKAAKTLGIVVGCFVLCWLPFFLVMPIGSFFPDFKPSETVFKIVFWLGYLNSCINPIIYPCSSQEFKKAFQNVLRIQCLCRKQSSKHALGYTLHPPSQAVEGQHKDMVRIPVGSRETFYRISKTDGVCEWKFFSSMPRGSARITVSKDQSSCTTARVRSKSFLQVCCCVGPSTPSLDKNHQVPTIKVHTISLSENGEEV
Protocol: […]. The compounds were tested at the concentration of 1×10^−6M.
Conditions and methodology (by reference to the literature) of cellular functional assays are given in Table 13 and the tests results for representative compounds are given in Table 14 (dopaminergic receptor D2), in Table 15 (dopaminergic receptor D3), in Table 16 (serotoninergic receptor 5-HT1A), in Table 17 (serotoninergic receptor 5-HT2A), in Table 18 (serotoninergic receptor 5-HT6), in Table 19 (serotoninergic receptor 5-HT7), in Table 20 (adrenergic α1 receptor), in Table 21 (adrenergic α2C receptor), in Table 22 (histaminergic H1 receptor) and in Table 23 (serotoninergic 5-HT2C receptor). In the Tables ag refers to agonism, and antag to antagonism).

Chain of serotoninergic 5-HT2A receptor (P28223 whole entry): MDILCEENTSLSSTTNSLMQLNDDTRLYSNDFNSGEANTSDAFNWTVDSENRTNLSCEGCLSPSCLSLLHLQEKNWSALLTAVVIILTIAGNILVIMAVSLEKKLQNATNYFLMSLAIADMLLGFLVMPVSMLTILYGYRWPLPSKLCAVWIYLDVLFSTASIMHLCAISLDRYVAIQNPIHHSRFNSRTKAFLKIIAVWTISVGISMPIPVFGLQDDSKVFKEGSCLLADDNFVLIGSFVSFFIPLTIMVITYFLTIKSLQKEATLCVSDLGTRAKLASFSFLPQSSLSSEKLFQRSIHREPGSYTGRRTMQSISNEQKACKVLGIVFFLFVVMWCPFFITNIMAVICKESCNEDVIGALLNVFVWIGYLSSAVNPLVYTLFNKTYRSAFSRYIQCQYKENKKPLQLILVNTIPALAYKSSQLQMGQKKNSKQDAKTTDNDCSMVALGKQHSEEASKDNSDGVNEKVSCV
Chain of histaminergic H1 receptor (P35367 whole entry): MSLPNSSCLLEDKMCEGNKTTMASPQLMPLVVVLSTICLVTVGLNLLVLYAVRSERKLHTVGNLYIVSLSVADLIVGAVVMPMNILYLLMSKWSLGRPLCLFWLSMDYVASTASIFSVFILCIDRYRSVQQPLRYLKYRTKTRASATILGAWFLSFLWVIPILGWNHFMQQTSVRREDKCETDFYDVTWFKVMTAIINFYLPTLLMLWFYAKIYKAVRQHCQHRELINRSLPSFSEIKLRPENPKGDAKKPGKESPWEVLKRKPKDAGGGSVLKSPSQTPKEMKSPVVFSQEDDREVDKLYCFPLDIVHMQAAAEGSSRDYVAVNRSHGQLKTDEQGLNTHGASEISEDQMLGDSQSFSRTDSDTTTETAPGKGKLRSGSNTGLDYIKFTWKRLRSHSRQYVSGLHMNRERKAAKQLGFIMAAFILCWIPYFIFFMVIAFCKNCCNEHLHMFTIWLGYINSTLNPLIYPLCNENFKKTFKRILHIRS
T1 sequence (P31645 whole entry): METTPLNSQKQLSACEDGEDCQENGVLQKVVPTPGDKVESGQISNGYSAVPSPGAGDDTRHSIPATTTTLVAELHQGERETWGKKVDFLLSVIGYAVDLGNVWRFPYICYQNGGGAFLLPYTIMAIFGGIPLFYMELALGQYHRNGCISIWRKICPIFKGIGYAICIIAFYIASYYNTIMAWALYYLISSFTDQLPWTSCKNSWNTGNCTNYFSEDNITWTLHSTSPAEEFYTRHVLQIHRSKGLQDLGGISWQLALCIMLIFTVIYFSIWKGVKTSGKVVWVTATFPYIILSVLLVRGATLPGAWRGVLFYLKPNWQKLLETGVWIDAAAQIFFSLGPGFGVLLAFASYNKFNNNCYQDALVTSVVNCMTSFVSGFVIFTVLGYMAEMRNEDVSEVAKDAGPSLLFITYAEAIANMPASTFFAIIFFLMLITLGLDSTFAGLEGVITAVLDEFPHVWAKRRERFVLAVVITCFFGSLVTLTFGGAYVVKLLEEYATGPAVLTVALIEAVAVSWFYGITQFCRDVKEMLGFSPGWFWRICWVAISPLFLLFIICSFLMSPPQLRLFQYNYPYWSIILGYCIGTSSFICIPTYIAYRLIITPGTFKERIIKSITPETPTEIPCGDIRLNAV
Chain of serotoninergic 5-HT7 receptor (P34969 whole entry): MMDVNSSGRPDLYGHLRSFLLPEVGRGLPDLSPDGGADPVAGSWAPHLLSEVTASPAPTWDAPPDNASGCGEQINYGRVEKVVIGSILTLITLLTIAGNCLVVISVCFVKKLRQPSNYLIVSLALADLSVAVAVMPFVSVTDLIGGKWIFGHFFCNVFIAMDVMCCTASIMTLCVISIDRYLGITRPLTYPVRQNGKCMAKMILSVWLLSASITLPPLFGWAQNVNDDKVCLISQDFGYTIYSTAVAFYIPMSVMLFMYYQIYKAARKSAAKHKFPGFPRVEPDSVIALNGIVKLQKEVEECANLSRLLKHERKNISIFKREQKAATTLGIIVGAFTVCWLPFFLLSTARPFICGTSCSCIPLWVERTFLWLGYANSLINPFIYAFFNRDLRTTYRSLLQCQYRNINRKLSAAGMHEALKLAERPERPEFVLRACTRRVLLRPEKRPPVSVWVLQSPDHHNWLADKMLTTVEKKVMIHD

| SMILES | inhibition at 1 µM [1] [%] | activation at 1 µM [2] [%] | inhibition at 1 µM [2] [%] | inhibition at 1 µM (dopaminergic D2 receptor [3]) [%] | inhibition at 1 µM [4] [%] | activation at 1 µM [5] [%] | inhibition at 1 µM [5] [%] | inhibition at 1 µM [6] [%] | σ [%] (sigma σ receptor) | α1 [%] (adrenergic α1 receptor) | activation at 1 µM (dopaminergic D2 receptor [7]) [%] | inhibition at 1 µM (dopaminergic D2 receptor [7]) [%] | activation at 1 µM (adrenergic α1A receptor) [%] | inhibition at 1 µM (adrenergic α1A receptor) [%] |
| --- | --- | --- | --- | --- | --- | --- | --- | --- | --- | --- | --- | --- | --- | --- |
| O=S(=O)(NCCCCN1CCN(c2nsc3ccccc23)CC1)c1cccc2ccccc12 [Compound 1, N-(4-(4-(1,2-Benzothiazol-3-yl)piperazin-1-yl)butyl)naphthalene-1-sulphonamide] | 49 | -1 | 97 | 97 | 99 | 0 | 51 | 96 | 54 | 99 | -1 | 95 | 0 | 100 |
| O=S(=O)(NCCCN1CCC(c2noc3cc(F)ccc23)CC1)c1ccc2cc(Cl)ccc2c1 [Compound 98, 6-Chloro-N-[3-[4-(6-fluoro-1,2-benzoxazol-3-yl)piperidin-1-yl]propyl]naphthalene-2-sulphonamide] | 54 | -2 | 92 | 101 | 102 | -1 | 78 | 80 |  |  | 4 | 80 | 0 | 99 |
| Cc1c(S(=O)(=O)NCCCCN2CCC(c3noc4cc(F)ccc34)CC2)sc2ccc(F)cc12 [Compound 101, 5-Fluoro-N-[4-[4-(6-fluoro-1,2-benzoxazol-3-yl)piperidin-1-yl]butyl]-3-methylbenzothiophene-2-sulphonamide] | 47 | -2 | 101 | 99 | 100 | 33 | 94 | 82 | 70 | 99 | 6 | 85 | 0 | 100 |
| O=S(=O)(NCCCCN1CCN(c2noc3ccccc23)CC1)c1cc2ccc(Cl)cc2s1 [Compound 288, N-[4-[4-(1,2-Benzoxazol-3-yl)piperazin-1-yl]butyl]-6-chlorobenzothiophene-2-sulphonamide] | -14 | -2 | 92 | 103 | 95 | 0 | 57 | 86 | 45 | 94 | 5 | 79 | 0 | 97 |
| O=S(=O)(NCCCCN1CCC(c2noc3cc(F)ccc23)CC1)c1ccc(Br)cc1 [Compound 298, 4-Bromo-N-[4-[4-(6-fluoro-1,2-benzoxazol-3-yl)piperidin-1-yl]butyl]benzenesulphonamide] | 35 | -3 | 98 | 99 | 100 | 30 | 90 | 67 | 68 | 103 | 12 | 84 | 1 | 100 |
| O=S(=O)(NCCCCN1CCC(c2noc3cc(F)ccc23)CC1)c1csc2ccccc12 [Compound 313, N-[4-[4-(6-Fluoro-1,2-benzoxazol-3-yl)piperidin-1-yl]butyl]benzothiophene-3-sulphonamide] | 23 | -2 | 100 | 101 | 101 | 4 | 47 | 72 | 83 | 100 | -5 | 85 | 0 | 100 |
| O=S(=O)(NCCCCN1CCC(c2noc3cc(F)ccc23)CC1)c1cc2ccc(Cl)cc2s1 [Compound 314, 6-Chloro-N-[4-[4-(6-fluoro-1,2-benzoxazol-3-yl)piperidin-1-yl]butyl]benzothiophene-2-sulphonamide] | 50 | -3 | 95 | 99 | 102 | 5 | 50 | 75 | 49 | 100 | 9 | 86 | 1 | 100 |
| O=S(=O)(NCCCN1CCC(c2noc3cc(F)ccc23)CC1)c1ccc(F)c(Cl)c1 [Compound 331, 3-Chloro-4-fluoro-N-[3-[4-(6-fluoro-1,2-benzoxazol-3-yl)piperidin-1-yl]propyl]benzenesulphonamide] | 31 | -2 | 102 | 100 | 102 | 2 | 85 | 82 |  |  | 4 | 87 | 1 | 100 |
| N#Cc1cccc(S(=O)(=O)NCCCN2CCC(c3noc4cc(F)ccc34)CC2)c1 [Compound 338, 3-cyano-N-[3-[4-(6-fluoro-1,2-benzoxazol-3-yl)piperidin-1-yl]propyl]benzenesulphonamide] | 21 | -3 | 100 | 98 | 102 | 1 | 51 | 80 | 72 | 99 | 3 | 88 | 2 | 100 |
| O=S(=O)(NCCCN1CCC(c2noc3cc(F)ccc23)CC1)c1ccc2cn[nH]c2c1 [Compound 352, N-[3-[4-(6-Fluoro-1,2-benzoxazol-3-yl)piperidin-1-yl]propyl]-1H-indazole-6-sulphonamide] | 56 | -2 | 102 | 100 | 101 | 1 | 60 | 89 | 76 | 99 | 12 | 88 | 1 | 100 |
